Source: PubChem BioAssay AID504897 (Southern Research Specialized Biocontainment Screening …, 2011)
The source made the active and inactive calls. No rule for the calls is given here.

Experiments:
[1] = M. tuberculosis growth inhibition, dose response, H37Rv, 7H9 media, purified and synthesized compounds, set 6 (AID 504897); conditions: Mycobacterium tuberculosis H37Rv growth inhibition, 7H9 medium; at 100 µM (top of the series)
[2] = system: Mycobacterium tuberculosis H37Rv growth inhibition, 7H9 medium; experiment: as above; conditions: for IC50: measured here: IC50 of Mtb growth inhibition

Row | Structure (SMILES) | inhibition [1] | IC90 [2] [nM] | IC50 [2] [nM]
1 | COc1cccc(NC(=O)CSc2nc3ccccc3c(=O)[nH]2)c1 | -3.46% (inactive) | – | –
2 | CC(C)N=c1cc2n(-c3ccc(Cl)cc3)c3ccccc3nc-2cc1Nc1ccc(Cl)cc1 | – | 396 | 67
3 | COC(=O)C(Nc1nc(SCC(=O)NC2CCCCC2)nc2ccccc12)c1ccccc1 (centres undefined) | 9.91% (inactive) | – | –
4 | Nc1c(C(=O)NC2CCCCC2)nsc1C(=O)OCC(=O)NC1CCCCC1 | – | 7450 | 2130
5 | NNC(=O)c1ccncc1 | – | 294 | 175
6 | CCC(Sc1nc2c(c(=O)[nH]1)CCC2)C(=O)Nc1cccc(OC)c1 (centres undefined) | 1.68% (inactive) | – | –
7 | CCCCNC(=O)CSc1nc2ccccc2c(=O)[nH]1 | – | 1210 | 55
8 | CC(C)CNC(=O)CSc1nc2ccccc2c(=O)[nH]1 | – | 432 | 173
9 | NC[C@H]1O[C@H](O[C@H]2[C@H](O)[C@@H](O[C@H]3O[C@H](CO)[C@@H](O)[C@H](N)[C@H]3O)[C@H](N)C[C@@H]2N)[C@H](O)[C@@H](O)[C@@H]1O | – | 2120 | 1390
10 | O=C(CSc1nc2ccccc2c(=O)[nH]1)NCc1ccc(Cl)cc1 | – | 973 | 554
11 | Cc1[nH]c2ccccc2c1C(=O)COC(=O)c1ccc([N+](=O)[O-])s1 | – | – | > 67400
12 | CC(Sc1nc2ccccc2c(=O)[nH]1)C(=O)NC1CCCCC1 (centres undefined) | -1.17% (inactive) | – | –
13 | Cc1nc(SCC(N)=O)[nH]c(=O)c1C | -2.86% (inactive) | – | –
14 | Cc1nc(SCC(=O)N(C)c2ccccc2)[nH]c(=O)c1C | -3.37% (inactive) | – | –
15 | CCSc1nc(C)c(C)c(=O)[nH]1 | 0.94% (inactive) | – | –
16 | O=C(CSc1nc2ccccc2c(=O)[nH]1)NC1CCCC1 | – | 535 | 89
17 | O=c1[nH]c(=S)[nH]c2ccccc12 | -4.69% (inactive) | – | –
18 | CCOC(=O)CSc1nc(C)c(C)c(=O)[nH]1 | 3.07% (inactive) | – | –
19 | Cc1cccc(-c2oc3ccc(-c4ccc5c(c4)OCO5)cc3c2C#Cc2cncn2C)c1 | – | 2980 | 2410
20 | NC(=O)c1cnccn1 | – | – | > 100000
21 | COc1c(N2CCNC(C)C2)c(F)cc2c(=O)c(C(=O)O)cn(C3CC3)c12 (centres undefined) | – | 162 | 113
22 | CN(C)C(=O)CSc1nc2ccccc2c(=O)[nH]1 | 0.96% (inactive) | – | –
23 | Cc1cc(=O)[nH]c(=S)[nH]1 | -3.5% (inactive) | – | –

Row | Structure (SMILES) | inhibition [1] | IC90 [2] [nM] | IC50 [2] [nM]
24 | Cc1nc(SCC(=O)NCCC(C)C)[nH]c(=O)c1C | – | 8750 | 4900
25 | Cc1ccc(NC(=O)CSc2nc3ccccc3c(=O)[nH]2)cc1Cl | -4.35% (inactive) | – | –
26 | Cc1cc(=O)[nH]c(SCC(=O)NC2CCCCC2)n1 | 0.97% (inactive) | – | –
27 | CN[C@@H]1[C@H](O[C@H]2[C@H](O[C@H]3[C@H](O)[C@@H](O)[C@H](N=C(N)N)[C@@H](O)[C@@H]3N=C(N)N)O[C@@H](C)[C@]2(O)C=O)O[C@@H](CO)[C@H](O)[C@H]1O | – | 176 | 101
28 | Cc1cc(Br)ccc1NC(=O)c1cnc(N2CCN(c3ccccn3)CC2)c2ccccc12 | – | 2790 | 887
29 | O=C(CSc1nc2c(c(=O)[nH]1)CCCC2)NC1CCCCC1 | – | 81 | < 37
30 | Cc1nc(SCC(=O)NC2CCCCC2)[nH]c(=O)c1C | – | 1320 | < 6
31 | Cc1cccc(/C=C/C(=O)c2ccc([N+](=O)[O-])o2)c1 | – | 938 | 495
32 | COc1ccc(NC(=O)CSc2nc3ccccc3c(=O)[nH]2)cc1 | 1.71% (inactive) | – | –
33 | CN(C(=O)CSc1nc2ccccc2c(=O)[nH]1)C1CCCCC1 | -1.28% (inactive) | – | –
34 | O=C(CSc1ncccn1)NC1CCCCC1 | -0.52% (inactive) | – | –
35 | Cc1[nH]c(=S)[nH]c(=O)c1C | -0.2% (inactive) | – | –
36 | O=c1[nH]c(SCc2ccccc2Cl)nc2c1CCCC2 | 1.13% (inactive) | – | –
37 | Cc1nc(SCc2ccccc2Cl)[nH]c(=O)c1C | -10.5% (inactive) | – | –
38 | Cc1cnc(SCC(=O)NC2CCCCC2)[nH]c1=O | 0.5% (inactive) | – | –
39 | O=C(CSc1nccc(=O)[nH]1)NC1CCCCC1 | 0.9% (inactive) | – | –
40 | Cc1cc(C)n2nc(N)c(N=Nc3ccccc3)c2n1 | – | 6010 | 4940
41 | CC(C)CCNC(=O)CSc1nc2ccccc2c(=O)[nH]1 | – | < 136 | < 81
42 | CC1CCN(C(=O)C2CCN(c3nnc(-n4cccc4)s3)CC2)CC1 | – | 3900 | 2750
43 | CC(C)CCNC(=O)CSc1nc2c(c(=O)[nH]1)CCC2 | – | 947 | 722
44 | CCSc1nc2ccccc2c(=O)[nH]1 | -6.01% (inactive) | – | –
45 | O=C(CSc1ccccn1)NC1CCCCC1 | – | – | > 100000
46 | Nc1cc(=O)[nH]c(SCC(=O)NC2CCCCC2)n1 | -4.53% (inactive) | – | –

Row | Structure (SMILES) | inhibition [1] | IC90 [2] [nM] | IC50 [2] [nM]
47 | CN1CCC(NC(=O)CSc2nc3ccccc3c(=O)[nH]2)CC1 | -4.24% (inactive) | – | –
48 | COc1cccc(NC(=O)CSc2nc3c(c(=O)[nH]2)CCC3)c1 | -0.07% (inactive) | – | –
49 | Cc1ccc(NC(=O)COC(=O)CCc2c[nH]c3ccccc23)cc1[N+](=O)[O-] | – | 4370 | 1340
50 | CNC(=O)CSc1nc2ccccc2c(=O)[nH]1 | – | 68100 | 43900
51 | CCC(Sc1nc2ccccc2c(=O)[nH]1)C(=O)NC1CCCCC1 (centres undefined) | 1.35% (inactive) | – | –
52 | Cc1nc(SCC(=O)NC2CCCC2)[nH]c(=O)c1C | – | 8890 | 5120
53 | Cn1c(SCC(=O)NC2CCCCC2)nc2ccccc2c1=O | -2.65% (inactive) | – | –
54 | CCOC1OC(=O)C(Cl)=C1Nc1ccccc1C (centres undefined) | – | 5920 | 3220
55 | Cc1c[nH]c(=S)[nH]c1=O | -0.98% (inactive) | – | –
56 | NC(=O)CSc1nc2ccccc2c(=O)[nH]1 | 3.52% (inactive) | – | –
57 | O=C(CSc1nc2c(c(=O)[nH]1)CCC2)NC1CCCCC1 | – | < 69 | < 34
58 | CCOc1ccc(-c2cc(C)[n+](CCc3ccc(OC)c(OC)c3)c(-c3ccc(OCC)cc3)c2)cc1 | – | 954 | 568
59 | CC(C)NC(=O)CSc1nc2ccccc2c(=O)[nH]1 | – | 14200 | 5840
60 | CC1CCN(C(=O)CSc2nc3ccccc3c(=O)[nH]2)CC1 | 3.89% (inactive) | – | –
61 | CCCc1cc(C(N)=S)ccn1 | – | – | 7240
62 | COC(=O)c1ccc(CNc2c(N3CCCC3)c(=O)c2=O)cc1 | – | – | > 100000
63 | CCC(Sc1nc2ccccc2c(=O)[nH]1)C(=O)Nc1cccc(OC)c1 (centres undefined) | 4.58% (inactive) | – | –
64 | O=C(CSc1nc2ccccc2c(=O)[nH]1)N1CCOCC1 | 6.74% (inactive) | – | –
65 | c1ccc(/N=C2\N=C(Nc3ccccn3)c3ccccc32)nc1 | – | 1760 | 1180
66 | COC(=O)C(C)Oc1ccc(Cc2ncc(C(F)(F)F)cc2Cl)cc1 (centres undefined) | – | 6750 | 3500
67 | Cc1ccc(C(=O)N/N=C(/CC(=O)c2cccs2)C(F)(F)F)cc1 | – | 3100 | 1930
68 | CC[N+](C)(CC)CCCCOc1ccc2c(c1)C(=O)c1cc(OCCCC[N+](C)(CC)CC)ccc1-2 | – | 2650 | 1770
